Results from patent US20100210617A1, “Aryl-Alkylamines And Heteroaryl-Alkylamines As Protein Kinase Inhibitors” (ASTEX THERAPEUTICS LIMITED, priority 2005, published 2010).
Counter-ions that a name gives are not always drawn.

Assays:
PKA catalytic domain = biological target: T1, PKA catalytic domain (Homo sapiens, UniProt P17612); assay: Measurement of PKA kinase inhibitory activity (IC50); format: biochemical; details: 1 nM enzyme, 40 μM ATP/γ33P-ATP, 5 μM peptide substrate […], 20 minutes; read-out: IC50, concentration required to inhibit 50% of the PKA activity
T1 construct: using the PKA catalytic domain from Upstate Biotechnology (#14-440); purchased Upstate Biotechnology 14-440
Protocol: A final concentration of 1 nM enzyme is used in a buffer that includes 20 mM MOPS pH 7.2, 40 μM ATP/γ^33P-ATP and 5 μM substrate. Compounds are added in dimethylsulphoxide (DMSO) solution to a final DMSO concentration of 2.5%. The reaction is allowed to proceed for 20 minutes before addition of excess orthophosphoric acid to quench activity. Unincorporated γ^33P-ATP is then separated from phosphorylated proteins on a Millipore MAPH filter plate. The plates are washed, scintillant is added and the plates are then subjected to counting on a Packard Topcount.

[1] = biological target: T2, protein kinase B (PKB), fusion protein PKB-PIF (Homo sapiens, UniProt P31751); assay: Measurement of PKB kinase inhibitory activity (IC50); format: biochemical; details: 0.6 nM enzyme, 30 μM ATP/γ33P-ATP, 25 μM AKTide-2T substrate, 20 minutes; read-out: IC50, concentration required to inhibit 50% of the PKB activity
T2 construct: made in house
Protocol: The inhibition of protein kinase B (PKB) activity by compounds can be determined essentially as described by Andjelkovic et al. (Mol. Cell. Biol. 19, 5061-5072 (1999)) but using a fusion protein described as PKB-PIF and described in full by Yang et al (Nature Structural Biology 9, 940-944 (2002)). […] A final concentration of 0.6 nM enzyme is used in a buffer that includes 20 mM MOPS pH 7.2, 30 μM ATP/γ^33P-ATP and 25 μM substrate. Compounds are added in DMSO solution to a final DMSO concentration of 2.5%. The reaction is allowed to proceed for 20 minutes before addition of excess orthophosphoric acid to quench activity. The reaction mixture is transferred to a phosphocellulose filter plate where the peptide binds and the unused ATP is washed away. After washing, scintillant is added and the incorporated activity measured by scintillation counting.
The % inhibition of the PKB activity is calculated and plotted in order to determine the concentration of test compound required to inhibit 50% of the PKB activity (IC50).

T2 sequence (P31751 with tags, fused parts or gaps limits assumed): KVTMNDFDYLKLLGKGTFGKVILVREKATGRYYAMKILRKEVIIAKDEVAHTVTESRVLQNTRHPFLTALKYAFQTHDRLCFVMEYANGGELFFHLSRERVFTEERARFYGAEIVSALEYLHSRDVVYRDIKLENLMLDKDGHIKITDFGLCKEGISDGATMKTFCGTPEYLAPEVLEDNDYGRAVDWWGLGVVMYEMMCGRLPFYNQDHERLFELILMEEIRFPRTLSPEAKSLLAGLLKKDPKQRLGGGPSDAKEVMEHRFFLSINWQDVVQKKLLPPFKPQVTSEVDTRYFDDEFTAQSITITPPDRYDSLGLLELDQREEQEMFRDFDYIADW

| Structure (SMILES) | IC50 (PKA catalytic domain) [nM] | IC50 [1] [nM] |
| --- | --- | --- |
| COc1ccc(C2(c3ccc(-c4cn[nH]c4)cc3)CCNCC2)cn1 [Example 90, 4-(2-Methoxy-5-pyridin-yl)-4-[4-(1H-pyrazol-4-yl)-phenyl]-piperidine] | < 100 | < 1000 |
| COc1cccc(OCC2(c3ccc(-c4c[nH]nc4C)cc3)CCNCC2)c1 [Example 77, 4-(3-Methoxy-phenoxymethyl)-4-[4-(3-methyl-1H-pyrazol-4-yl)-phenyl]-piperidine] | < 1000 | < 1000 |
| COc1ccc(-c2cccc(C3(c4ccc(-c5cn[nH]c5)cc4)CCNCC3)c2)cc1 [Example 85, 4-(4′-Methoxy-biphenyl-3-yl)-4-[4-(1H-pyrazol-4-yl)-phenyl]-piperidine dihydrochloride] | < 100 | < 1000 |
| Clc1ccc(C2(c3ccc(-c4cn[nH]c4)cc3)CCNC2)cc1 (stereo not shown) [Example 81, 4-{4-[3-(4-Chloro-phenyl)-pyrrolidin-3-yl]-phenyl}-1H-pyrazole formate] | < 1000 | < 1000 |
| COc1ccc(C2(c3ccc(-c4cn[nH]c4)cc3)CNC2)cc1 [Example 82, 4-{-4-[3-(4-Methoxy-phenyl)-azetidin-3-yl]-phenyl}-1H-pyrazole formate] | < 1000 | < 1000 |
| CCc1[nH]ncc1-c1ccc(C2(c3ccc(Cl)cc3)CCNCC2)cc1 [Example 87, 4-(4-Chloro-phenyl)-4-[4-(5-ethyl-1H-pyrazol-4-yl)-phenyl]-piperidine] | < 1000 | < 1000 |
| NCC[C@@](O)(c1ccc(Cl)cc1)c1ccc(-c2cn[nH]c2)cc1 [Example 99A, (S)-3-Amino-1-(4-chloro-phenyl)-1-[4-(1H-pyrazol-4-yl)-phenyl]-propan-1-ol] | < 100 | < 100 |
| CN(C)c1cccc(C2(c3ccc(-c4cn[nH]c4)cc3)CCNCC2)c1 [Example 89, Dimethyl-(3-{4-[4-(1H-pyrazol-4-yl)-phenyl]-piperidin-4-yl}-phenyl)-amine] | < 1000 | < 1000 |
| Clc1cccc(C2(c3ccc(-c4cn[nH]c4)cc3)CCNCC2)c1 [Example 84, 4-(3-Chloro-phenyl)-4-[4-(1H-pyrazol-4-yl)-phenyl]-piperidine] | < 100 | < 100 |
| NCC(O)(c1ccc(Cl)cc1)c1ccc(-c2cn[nH]c2)cn1 (stereo not shown) [Example 91, 2-Amino-1-(4-chloro-phenyl)-[5-(1H-pyrazol-4-yl)-pyridin-2-yl]-ethanol hydrochloride] | < 100 | < 1000 |
| c1cc(C2(c3ccc4c(c3)OCCO4)CCNCC2)ccc1-c1cn[nH]c1 [Example 83, 4-(2,3-Dihydro-benzo[1,4]dioxin-6-yl)-4-[4-(1H-pyrazol-4-yl)-phenyl]-piperidine] | < 100 | < 100 |
| NCCC(O)(c1ccc(-c2cn[nH]c2)cc1)c1ccc(Cl)c(Cl)c1 (stereo not shown) [Example 96, 3-Amino-1-(3,4,-dichlorophenyl)-1-[4-(1H-pyrazol-4-yl)-phenyl]-propan-1-ol] | < 100 | < 100 |
| Cc1n[nH]cc1-c1ccc(C(O)(CN)c2ccc(Cl)cc2)cc1 (stereo not shown) [Example 79, 2-Amino-1-(4-chloro-phenyl)-1-[4-(3-methyl-1H-pyrazol-4-yl)-phenyl]-ethanol] | < 100 | < 100 |
| Clc1ccc(C2(c3ccc(-c4cn[nH]c4C4CC4)cc3)CCNCC2)cc1 [Example 88, 4-(4-Chloro-phenyl)-4-[4-(5-cyclopropyl-1H-pyrazol-4-yl)-phenyl]-piperidine] | < 1000 | < 100 |
| NCCC(O)(c1ccc(-c2cn[nH]c2)cc1)c1ccc(Cl)c(F)c1 (stereo not shown) [Example 95, 3-Amino-1-(4-chloro-3-fluoro-phenyl)-1-[4-(1H-pyrazol-4-yl)-phenyl]-propan-1-ol] | < 100 | < 100 |
| Cc1n[nH]cc1-c1ccc(C2(COc3cccc(-c4nc5ccccc5o4)c3)CCNCC2)cc1 [Example 93, 2-(3-{4-[4-(3-Methyl-1H-pyrazol-4-yl)-phenyl]-piperidin-4-ylmethoxy}-phenyl)-benzooxazole] |  | < 100 |

Second part, the compound after the results:

| IC50 (PKA catalytic domain) [nM] | IC50 [1] [nM] | Structure (SMILES) |
| --- | --- | --- |
| < 100 | < 100 | NCCC(O)(c1ccc(Cl)cc1)c1ccc(-c2cn[nH]c2)cc1F (stereo not shown) [Example 94, 3-Amino-1-(4-chlorophenyl)-1-[2-fluoro-4-(1H-pyrazol-4-yl)-phenyl]-propan-1-ol-acetic acid salt] |
| < 100 | < 100 | COc1ccc(C2(c3ccc(-c4c[nH]nc4C)cc3)CCNCC2)cc1 [Example 86, 4-(4-Methoxy-phenyl)-4-[4-(3-methyl-1H-pyrazol-4-yl)-phenyl]piperidine dihydrochloride] |
| < 100 | < 100 | NCCC(O)(c1ccc(Cl)cc1)c1ccc(-c2cn[nH]c2)cc1 (racemic) [Example 92, 3-Amino-1-(4-chloro-phenyl)-1-[4-(1H-pyrazol-4-yl)-phenyl]-propan-1-ol] |
| < 100 | < 100 | NCCC(c1ccc(-c2cn[nH]c2)cc1)c1ccc(Cl)c(F)c1 (stereo not shown) [Example 1, 3-(4-Chloro-3-fluoro-phenyl)-3-[4-(1H-pyrazol-4-yl)-phenyl]-propylamine] |
|  | < 100 | NCC[C@](O)(c1ccc(Cl)cc1)c1ccc(-c2cn[nH]c2)cc1 [Example 99B, (R)-3-Amino-1-(4-chloro-phenyl)-1-[4-(1H-pyrazol-4-yl)-phenyl]-propan-1-ol] |
| < 100 | < 100 | CCc1n[nH]cc1-c1ccc(C(O)(CN)c2ccc(Cl)cc2)cc1 (stereo not shown) [Example 80, 2-Amino-1-(4-chloro-phenyl)-1-[4-(3-ethyl-1H-pyrazol-4-yl)-phenyl]-ethanol] |
|  | < 100 | NCC[C@H](c1ccc(-c2cn[nH]c2)cc1)c1ccc(Cl)c(Cl)c1 [Example 2, (R)-3-(3,4-Dichloro-phenyl)-3-[4-(1H-pyrazol-4-yl)-phenyl]-propylamine] |
